The supplement of paper PMC10307832

Assays:
Assay in all cases: relative viability (nuclei count vs DMSO), 5 days (fraction); higher = more cells survive
[1] = compound: CC1(C)CCC(CN2CCN(c3ccc(C(=O)NS(=O)(=O)c4ccc(NCC5CCOCC5)c([N+](=O)[O-])c4)c(Oc4cnc5[nH]ccc5c4)c3)CC2)=C(c2ccc(Cl)cc2)C1 [Venetoclax] + CC(=O)Nc1cccc(-n2c(=O)n(C3CC3)c(=O)c3c(Nc4ccc(I)cc4F)n(C)c(=O)c(C)c32)c1 [Trametinib] (partner 0.02 µM)
How it was run: (§1)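 Medians of duplicate plates are given as relative viability. That measure is the nuclei count in treated wells divided by the count in vehicle wells. Counts were taken on 4× images of lung cancer cell lines in 1536-well plates, 5 days after pin-tool dosing the day after seeding with one drug alone or a fixed anchor-drug dose plus five library-drug doses (not always all listed) in √10 steps.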

[2] = compound: CC1(C)CCC(CN2CCN(c3ccc(C(=O)NS(=O)(=O)c4ccc(NCC5CCOCC5)c([N+](=O)[O-])c4)c(Oc4cnc5[nH]ccc5c4)c3)CC2)=C(c2ccc(Cl)cc2)C1 [Venetoclax] + Cc1nc(NC(=O)N2CCC[C@H]2C(N)=O)sc1-c1ccnc(C(C)(C)C(F)(F)F)c1 [Alpelisib] (partner 2 µM)
How it was run: as §1

[3] = compound: CC1(C)CCC(CN2CCN(c3ccc(C(=O)NS(=O)(=O)c4ccc(NCC5CCOCC5)c([N+](=O)[O-])c4)c(Oc4cnc5[nH]ccc5c4)c3)CC2)=C(c2ccc(Cl)cc2)C1 [Venetoclax] + N=C(N)NC(=N)NCCc1ccccc1 [Phenformin] (partner 250 µM)
How it was run: as §1

[4] = compound: Cn1cnc2c(F)c(Nc3ccc(Br)cc3Cl)c(C(=O)NOCCO)cc21 [Selumetinib] + O=C(CCCCCCC(=O)Nc1ccccc1)NO [Vorinostat] (partner 1 µM)
How it was run: as §1

For NCI-H2347, the relative viability ([1]; first compound 0.01 µM) was 0.327, the relative viability ([1]; first compound 0.03162 µM) was 0.288 and the relative viability ([1]; first compound 0.1 µM) was 0.254. The relative viability ([1]; first compound 0.3162 µM) was 0.298, the relative viability ([1]; first compound 1 µM) was 0.267 and the relative viability ([2]; first compound 0.01 µM) was 1.04. For the same cell line, the relative viability ([2]; first compound 0.03162 µM) was 1.04, the relative viability ([2]; first compound 0.1 µM) was 1.06 and the relative viability ([2]; first compound 0.3162 µM) was 1. For the same cell line, the relative viability ([2]; first compound 1 µM) was 1.04, the relative viability ([3]; first compound 0.01 µM) was 0.316 and the relative viability ([3]; first compound 0.03162 µM) was 0.449. The relative viability ([3]; first compound 0.1 µM) was 0.433, the relative viability ([3]; first compound 0.3162 µM) was 0.424 and the relative viability ([3]; first compound 1 µM) was 0.33. For the same cell line, the relative viability ([4]; first compound 0.02 µM) was 0.521, the relative viability ([4]; first compound 0.06325 µM) was 0.467 and the relative viability ([4]; first compound 0.2 µM) was 0.36. The relative viability ([4]; first compound 0.6325 µM) was 0.283.
NCI-H2405 gave a relative viability ([1]; first compound 0.01 µM) of 0.769, a relative viability ([1]; first compound 0.03162 µM) of 0.603 and a relative viability ([1]; first compound 0.1 µM) of 0.584. It also gave a relative viability ([1]; first compound 0.3162 µM) of 0.646, a relative viability ([1]; first compound 1 µM) of 0.591 and a relative viability ([2]; first compound 0.01 µM) of 0.833. The relative viability ([2]; first compound 0.03162 µM) was 0.751, the relative viability ([2]; first compound 0.3162 µM) was 0.82 and the relative viability ([2]; first compound 1 µM) was 0.705. For the same cell line, the relative viability ([3]; first compound 0.01 µM) was 0.343, the relative viability ([3]; first compound 0.03162 µM) was 0.357 and the relative viability ([3]; first compound 0.1 µM) was 0.348. The relative viability ([3]; first compound 0.3162 µM) was 0.404, the relative viability ([3]; first compound 1 µM) was 0.379 and the relative viability ([4]; first compound 0.02 µM) was 1.18. The relative viability ([4]; first compound 0.06325 µM) was 1.04, the relative viability ([4]; first compound 0.2 µM) was 0.818 and the relative viability ([4]; first compound 0.6325 µM) was 0.987.
Work on NCI-H3122 yielded a relative viability ([1]; first compound 0.01 µM) of 0.259, a relative viability ([1]; first compound 0.03162 µM) of 0.197 and a relative viability ([1]; first compound 0.1 µM) of 0.211. It also gave a relative viability ([1]; first compound 0.3162 µM) of 0.227, a relative viability ([1]; first compound 1 µM) of 0.29 and a relative viability ([2]; first compound 0.01 µM) of 0.874. The relative viability ([2]; first compound 0.03162 µM) was 0.751, the relative viability ([2]; first compound 0.1 µM) was 0.757 and the relative viability ([2]; first compound 0.3162 µM) was 0.731. The relative viability ([2]; first compound 1 µM) was 0.884, the relative viability ([3]; first compound 0.01 µM) was 0.366 and the relative viability ([3]; first compound 0.03162 µM) was 0.361. It also gave a relative viability ([3]; first compound 0.1 µM) of 0.341, a relative viability ([3]; first compound 0.3162 µM) of 0.339 and a relative viability ([3]; first compound 1 µM) of 0.282. For the same cell line, the relative viability ([4]; first compound 0.02 µM) was 0.988, the relative viability ([4]; first compound 0.06325 µM) was 0.651 and the relative viability ([4]; first compound 0.2 µM) was 0.84. The relative viability ([4]; first compound 0.6325 µM) was 0.651.
For PC-3 [JPC-3], the relative viability ([1]; first compound 0.01 µM) was 0.656, the relative viability ([1]; first compound 0.03162 µM) was 0.685 and the relative viability ([1]; first compound 0.1 µM) was 0.678. The relative viability ([1]; first compound 0.3162 µM) was 0.683, the relative viability ([1]; first compound 1 µM) was 0.666 and the relative viability ([2]; first compound 0.01 µM) was 0.917. It also gave a relative viability ([2]; first compound 0.03162 µM) of 1.03, a relative viability ([2]; first compound 0.1 µM) of 1.01 and a relative viability ([2]; first compound 0.3162 µM) of 0.967. For the same cell line, the relative viability ([2]; first compound 1 µM) was 1.01, the relative viability ([3]; first compound 0.01 µM) was 0.503 and the relative viability ([3]; first compound 0.03162 µM) was 0.51. For the same cell line, the relative viability ([3]; first compound 0.1 µM) was 0.487, the relative viability ([3]; first compound 0.3162 µM) was 0.468 and the relative viability ([3]; first compound 1 µM) was 0.513. The relative viability ([4]; first compound 0.02 µM) was 1.02, the relative viability ([4]; first compound 0.06325 µM) was 0.663 and the relative viability ([4]; first compound 0.2 µM) was 0.748. It also gave a relative viability ([4]; first compound 0.6325 µM) of 0.734.
Cell Line PC-14 has a relative viability ([1]; first compound 0.01 µM) of 0.679, a relative viability ([1]; first compound 0.03162 µM) of 0.726 and a relative viability ([1]; first compound 0.1 µM) of 0.726. It also gave a relative viability ([1]; first compound 0.3162 µM) of 0.642, a relative viability ([1]; first compound 1 µM) of 0.645 and a relative viability ([2]; first compound 0.01 µM) of 0.882. The relative viability ([2]; first compound 0.03162 µM) was 0.931, the relative viability ([2]; first compound 0.1 µM) was 1.05 and the relative viability ([2]; first compound 0.3162 µM) was 0.952. For the same cell line, the relative viability ([2]; first compound 1 µM) was 0.776, the relative viability ([3]; first compound 0.01 µM) was 0.562 and the relative viability ([3]; first compound 0.03162 µM) was 0.747. It also gave a relative viability ([3]; first compound 0.1 µM) of 0.717, a relative viability ([3]; first compound 0.3162 µM) of 0.709 and a relative viability ([3]; first compound 1 µM) of 0.499. For the same cell line, the relative viability ([4]; first compound 0.02 µM) was 0.835, the relative viability ([4]; first compound 0.06325 µM) was 0.667 and the relative viability ([4]; first compound 0.2 µM) was 0.688. It also gave a relative viability ([4]; first compound 0.6325 µM) of 0.504.
RERF-LC-KJ showed a relative viability ([1]; first compound 0.01 µM) of 0.705, a relative viability ([1]; first compound 0.03162 µM) of 0.851 and a relative viability ([1]; first compound 0.1 µM) of 0.873. It also gave a relative viability ([1]; first compound 0.3162 µM) of 0.886, a relative viability ([1]; first compound 1 µM) of 0.795 and a relative viability ([2]; first compound 0.01 µM) of 0.769. For the same cell line, the relative viability ([2]; first compound 0.03162 µM) was 0.871, the relative viability ([2]; first compound 0.1 µM) was 0.736 and the relative viability ([2]; first compound 0.3162 µM) was 0.91. The relative viability ([2]; first compound 1 µM) was 0.779, the relative viability ([3]; first compound 0.01 µM) was 0.382 and the relative viability ([3]; first compound 0.03162 µM) was 0.414. It also gave a relative viability ([3]; first compound 0.1 µM) of 0.418, a relative viability ([3]; first compound 0.3162 µM) of 0.458 and a relative viability ([3]; first compound 1 µM) of 0.442. It also gave a relative viability ([4]; first compound 0.02 µM) of 0.649, a relative viability ([4]; first compound 0.06325 µM) of 0.656 and a relative viability ([4]; first compound 0.2 µM) of 0.629. It also gave a relative viability ([4]; first compound 0.6325 µM) of 0.637.
In the case of SK-LU-1, the relative viability ([1]; first compound 0.01 µM) is reported as 0.585, the relative viability ([1]; first compound 0.03162 µM) is reported as 0.512 and the relative viability ([1]; first compound 0.1 µM) is reported as 0.522. The relative viability ([1]; first compound 0.3162 µM) was 0.507, the relative viability ([1]; first compound 1 µM) was 0.587 and the relative viability ([2]; first compound 0.01 µM) was 0.899. For the same cell line, the relative viability ([2]; first compound 0.03162 µM) was 1.15, the relative viability ([2]; first compound 0.1 µM) was 0.855 and the relative viability ([2]; first compound 0.3162 µM) was 0.981. The relative viability ([2]; first compound 1 µM) was 0.854, the relative viability ([3]; first compound 0.01 µM) was 0.537 and the relative viability ([3]; first compound 0.03162 µM) was 0.613. For the same cell line, the relative viability ([3]; first compound 0.1 µM) was 0.526, the relative viability ([3]; first compound 0.3162 µM) was 0.531 and the relative viability ([3]; first compound 1 µM) was 0.505. For the same cell line, the relative viability ([4]; first compound 0.02 µM) was 0.779, the relative viability ([4]; first compound 0.06325 µM) was 0.717 and the relative viability ([4]; first compound 0.2 µM) was 0.686. The relative viability ([4]; first compound 0.6325 µM) was 0.443.
Cell Line SK-MES-1 has a relative viability ([1]; first compound 0.01 µM) of 0.615, a relative viability ([1]; first compound 0.03162 µM) of 0.636 and a relative viability ([1]; first compound 0.1 µM) of 0.536. The relative viability ([1]; first compound 0.3162 µM) was 0.526, the relative viability ([1]; first compound 1 µM) was 0.554 and the relative viability ([2]; first compound 0.01 µM) was 0.857. It also gave a relative viability ([2]; first compound 0.03162 µM) of 0.898, a relative viability ([2]; first compound 0.1 µM) of 0.887 and a relative viability ([2]; first compound 0.3162 µM) of 0.788. It also gave a relative viability ([2]; first compound 1 µM) of 0.831, a relative viability ([3]; first compound 0.01 µM) of 0.616 and a relative viability ([3]; first compound 0.03162 µM) of 0.685. For the same cell line, the relative viability ([3]; first compound 0.1 µM) was 0.69, the relative viability ([3]; first compound 0.3162 µM) was 0.601 and the relative viability ([3]; first compound 1 µM) was 0.511. For the same cell line, the relative viability ([4]; first compound 0.02 µM) was 0.938, the relative viability ([4]; first compound 0.06325 µM) was 0.85 and the relative viability ([4]; first compound 0.2 µM) was 0.853. For the same cell line, the relative viability ([4]; first compound 0.6325 µM) was 0.65.
Cell Line SW 1573 has a relative viability ([1]; first compound 0.01 µM) of 0.571, a relative viability ([1]; first compound 0.03162 µM) of 0.612 and a relative viability ([1]; first compound 0.1 µM) of 0.486. For the same cell line, the relative viability ([1]; first compound 0.3162 µM) was 0.603, the relative viability ([1]; first compound 1 µM) was 0.545 and the relative viability ([2]; first compound 0.01 µM) was 0.74. It also gave a relative viability ([2]; first compound 0.03162 µM) of 0.754, a relative viability ([2]; first compound 0.1 µM) of 0.632 and a relative viability ([2]; first compound 0.3162 µM) of 0.758. It also gave a relative viability ([2]; first compound 1 µM) of 0.681, a relative viability ([3]; first compound 0.01 µM) of 0.425 and a relative viability ([3]; first compound 0.03162 µM) of 0.373. The relative viability ([3]; first compound 0.1 µM) was 0.327, the relative viability ([3]; first compound 0.3162 µM) was 0.47 and the relative viability ([3]; first compound 1 µM) was 0.392. It also gave a relative viability ([4]; first compound 0.02 µM) of 0.652, a relative viability ([4]; first compound 0.06325 µM) of 0.582 and a relative viability ([4]; first compound 0.2 µM) of 0.703. It also gave a relative viability ([4]; first compound 0.6325 µM) of 0.914.
